In US9687470B2, “Compounds for use in the treatment of filariasis” (RHEINISCHE FRIEDRICH-WILHELMS UNIVERSITAET BONN, priority 2011, dated 2017):
Entries after “also recorded” stand apart in the source; their conditions may differ.

Legend:
Litomosoides sigmodontis = test: Worm length (larval development) of L. sigmodontis recovered from treated BALB/c mice; type: in vivo, Litomosoides sigmodontis in BALB/c mice; details: worms recovered five weeks post infection
Protocol: The effect of corallopyronin A in vivo was determined in a rodent model of BALB/c mice infected with the rodent filarial worm Litomosoides sigmodontis host to Wolbachia. L. sigmodontis a well established model for human filarial worms. A key advantage of this model is the fact that administration of anti-wolbachial drugs concomitant with infection by the L. sigmodontis larvae allows for a rapid assessment of activity on the day the worms are retrieved from the infected animals. […] The L. sigmodontis life cycle was maintained at the Institute for Medical Microbiology, Immunology and Parasitology as described by Al-Qaoud KM et al. (1997) “Infection of BALB/c mice with the filarial nematode Litomosoides sigmodontis: role of CD4+T cells in controlling larval development”, Infect Immun 65: 2457-2461. Female BALB/c mice aged 6-8 weeks were purchased from Charles River, Sulzfeld, Germany. […] The worms were sorted by sex with the aid of a dissecting microscope and their lengths measured. […] Normal distribution of the data was calculated using the D′Agostino & Pearson omnibus normality test. […] Alls statistics were calculated using GraphPad Prism version 5.00 for Windows, GraphPad Software, San Diego Calif. […]

C6/36 cells = type: cell-based, Aedes albopictus
[1] = Stability of corallopyronin A injection samples in PBS by analytical HPLC; type: physicochemical; details: samples in PBS used for injection; days 1, 14 and 28; compared with purified corallopyronin A
Protocol: To verify that the corallopyronin A was stable over the whole period of the in vivo experiment, aliquots of the samples in phosphate buffered saline (PBS, PAA Laboratories, Colbe, Germany) which were used for injection were analyzed by High performance liquid chromatography (HPLC). The conditions for the analytical HPLC runs were the same as above. […] Five weeks post infection worms were recovered from the pleural cavity by lavage with PBS. The worms were sorted by sex with the aid of a dissecting microscope and their lengths measured. 10 female worms from each treatment were individually frozen for DNA extraction.

[2] = Tolerability in infected BALB/c mice; type: in vivo; details: 35 mg/kg/day dosage
Protocol: Female BALB/c mice aged 6-8 weeks were purchased from Charles River, Sulzfeld, Germany. The mice were infected with L. sigmodontis larvae as described in by Al-Qaoud K M et al. Beginning the day after the infection, the mice were untreated or given intra-peritoneal injections of: 10% dimethyl sulfoxide (DMSO) (vehicle control), 50 mg/kg/day doxycycline (Merck), or 35 mg/kg/day of corallopyronin A. Doxycycline was given for 14 days while corallopyronin A and 10% DMSO (vehicle control) were given for 28 days. All substances were diluted in phosphate buffered saline (PBS, PAA Laboratories).

[3] = system: Wolbachia of A. albopictus; test: Susceptibility of Wolbachia to corallopyronin A in vitro (infected C6/36 cells, qPCR 16S-rRNA/actin ratio); type: cell-based
Protocol: The activity of corallopyronin A against Wolbachia was tested in vitro using the Aedes albopictus C6/36 cell line infected with Wolbachia of A. albopictus.
The susceptibility of Wolbachia towards corallopyronin A was investigated as described previously (Henrichfreise, Schiefer et al., “Functional conservation of the lipid II biosynthesis pathway in the cell wall-less bacteria Chlamydia and Wolbachia: why is lipid II needed?”, (2009) Mol Microbiol, 73 (5): 913-923) with some modifications.
The A. albopictus cell line C6/36 (European Collection of Cell Cultures) infected with Wolbachia from A. albopictus B containing supernatant as described in Turner et al., J Immunol 2006, 177(2): 1240-1249 were cultured in 96-well plates by seeding each well with 1×10^4 insect cells. The cells were incubated for 9 days at 26° C. in L15 Leibovitz's medium (Invitrogen, Darmstadt, Germany) supplemented with 5% fetal calf serum (FCS, Invitrogen), 1% nonessential amino acids (PAA Laboratories, Colbe, Germany), 0.59 mg/ml tryptose phosphate broth (Sigma, Munich, Germany) and 0.01% penicillin/streptomycin (PAA Laboratories) with and without 4 μg/ml doxycycline (Merck, Darmstadt, Germany) and 1, 0.1 and 0.01 μg/ml corallopyronin A in duplicate. The medium was replaced every third day. The treated cells were harvested on day 9.
Extraction of genomic DNA was performed with the QIAamp Kit (Qiagen, Hilden, Germany) according to the instructions of the manufacturer. Depletion of Wolbachia was monitored by quantitative real-time PCR (qPCR) using the primers 16S-rRNA-Fw (5′-[…]-3′, SEQ ID NO: 1) and 16S-rRNA-Rev (5′-GTGTGGCTGATCATCCTCT-3′, SEQ ID NO: 2) which target the 16S-rRNA gene (GenBank Accession #: X61767) of Wolbachia and Ac-Fw (5′-[…]-3′, SEQ ID NO: 3) and Ac-Rev (5′-[…]-3′, SEQ ID NO: 4) for actin (GenBank Accession #: DQ657949) of the C6/36 cells.
The PCR reaction mixtures were 20 μl of 1× HotStar Taq Buffer (Qiagen), 3 mM MgCl2, 0.2 mM dNTPs (PeqLab, Erlangen, Germany), 0.5 μM forward and reverse 16S-rRNA primers or 0.3 μM forward and reverse actin primers, 0.2 μl of a 1:1000 dilution in DMSO of SybrGreen (Roche, Mannheim, Germany), 0.5 units HotStar Taq polymerase and 2 μl of gDNA. […] Specific amplification was confirmed by a melting curve analysis from 72° C. to 95° C. with fluorescence acquired on the FAM channel at 1° C. intervals. The copy number of each gene was calculated using a plasmid containing the appropriate insert as standard curve. […]
Normal distribution of the data was calculated using the D′Agostino & Pearson omnibus normality test. […] Alls statistics were calculated using GraphPad Prism version 5.00 for Windows, GraphPad Software, San Diego Calif. […]

Wolbachia = test: Susceptibility of Wolbachia in vivo: depletion from L. sigmodontis worms in infected BALB/c mice (qPCR ftsZ/actin); set-up: species or system Wolbachia of Litomosoides sigmodontis in BALB/c mice
Protocol: The effect of corallopyronin A in vivo was determined in a rodent model of BALB/c mice infected with the rodent filarial worm Litomosoides sigmodontis host to Wolbachia. L. sigmodontis a well established model for human filarial worms. A key advantage of this model is the fact that administration of anti-wolbachial drugs concomitant with infection by the L. sigmodontis larvae allows for a rapid assessment of activity on the day the worms are retrieved from the infected animals.
The L. sigmodontis life cycle was maintained at the Institute for Medical Microbiology, Immunology and Parasitology as described by Al-Qaoud KM et al. (1997) “Infection of BALB/c mice with the filarial nematode Litomosoides sigmodontis: role of CD4+T cells in controlling larval development”, Infect Immun 65: 2457-2461.
Female BALB/c mice aged 6-8 weeks were purchased from Charles River, Sulzfeld, Germany. […]
To control for degradation over time, an aliquot of corallopyronin A was frozen for HPLC analysis on days 1, 14 and 28. […] The worms were sorted by sex with the aid of a dissecting microscope and their lengths measured. […]
Depletion of Wolbachia was monitored by qPCR using the primers Ls-FtsZ-Fw (5′-[…]-3′, SEQ ID NO: 5) and Ls-FtsZ-Rev (5′-TTGCAATTACTGGTGCTGC-3′, SEQ ID NO: 6) and hybridization probe (5′-6-FAM-[…]-TAMRA-3′, SEQ ID NO: 7) which target ftsZ (GenBank Accession #: AJ010271), a single copy number gene of Wolbachia. […] Cycling conditions were: 95° C. for 15 minutes followed by 35 cycles of 94° C. for 4 seconds, 58° C. for 30 seconds and 72° C. for 15 seconds with fluorescence acquired on the FAM channel as described in Arumugam S et al., Int J Parasitol 2008, 38: 981-987.
To normalize the ftsZ content of worms of different lengths, the L. sigmodontis actin gene (GenBank Accession No.: GU971367) was quantified by qPCR using the primers Ac-Fw (5′-[…]-3′, SEQ ID NO: 8) and Ac-Rev (5′-[…]-3′, SEQ ID NO: 9). […]

Row | Structure (SMILES) | worm length (median) (Litomosoides sigmodontis; doxycycline 50 mg/kg/day intra-peritoneal for 14 days, untreated 38 mm, vehicle 34 mm) | toxicity to cells / cell growth (C6/36 cells) | degradation of corallopyronin A (HPLC) [1] | tolerability in mice [2] | visually apparent toxic effects in mice [2] | depletion of Wolbachia relative to doxycycline ([3]; 1 μg/ml versus 4 μg/ml doxycycline, nine days, C6/36 cell line) | depletion of Wolbachia ([3]; beginning at 0.1 μg/ml, nine days of treatment, C6/36 cell line) | anti-wolbachial effect in vitro ([3]; in vitro tests, summary statement) | dose dependence of Wolbachia depletion ([3]; nine day assay, 1, 0.1 and 0.01 μg/ml) | Wolbachia depletion from worms relative to doxycycline (Wolbachia; 35 mg/kg/day for 28 days versus doxycycline 50 mg/kg/day for 14 days) | depletion of the Wolbachia compared to the control (Wolbachia; BALB/c mice infected with L. sigmodontis, 35 mg/kg/day intra-peritoneal for 28 days) | anti-wolbachial effect in vivo (Wolbachia; in vivo tests, summary statement) | worm length (Litomosoides sigmodontis; 35 mg/kg/day intra-peritoneal for 28 days, control worms 38 mm)
1 | C[C@H]1c2cccc(O)c2C(=O)C2=C(O)[C@]3(O)C(=O)C(C(N)=O)=C(O)[C@@H](N(C)C)[C@@H]3[C@@H](O)[C@@H]21 [doxycycline, reference compound] | 8.3 mm | – | – | – | – | – | – | – | – | – | – | – | –
2 | C/C=C/C/C=C(/C)[C@H](O)CC/C(C)=C/C=C(\C)C(=O)c1c(O)cc([C@H](C)CC/C=C/NC(=O)OC)oc1=O [corallopyronin A, methyl N-[(1E)-5-[4-hydroxy-3-[(2E,4E,9Z,12E)-8-hydroxy-2,5,9-trimethyltetradeca-2,4,9,12-tetraenoyl]-2-oxo-2H-pyran-6-yl]hex-1-en-1-yl]carbamate] | – | without apparent cytotoxic effects | no degradation | well tolerated | no toxic effects were visually apparent | levels equivalent to 4 μg/ml of the tetracycline doxycycline; also recorded: levels equivalent to those of 4 μg/ml doxycycline | > 50% | potent anti-wolbachial effect | dose dependent manner | levels below those seen for doxycycline | > 99% | potent anti-wolbachial effect | 9.0 mm
